{"source": "patent US20120225132A1", "about": "“Methods for Increasing the Kinetic Activity of Alcohol, Water and Other Liquids, so as to Render the Liquids More Capable of Enhancing the Alternative Cellular Energy Pathway in the Prevention and Therapy of Diseases” (priority 2011, published 2012)", "system": "ACE pathway", "assay": "Clinical evaluation of ethanol solutions (with neutral red dye and UV illumination) by the parent of an autistic child", "type": "in vivo", "settings": "standardized protocol"}
{"smiles": "CCO", "note": "[unprocessed ethanol, ethanol]", "values": [{"measurement": "clinical response of the child with autism as judged by the parent", "result": "still effective"}]}
